Measured values published in US20150080292A1 (priority 2013, published 2015).
Converted amounts (≈) assume the structure as drawn. Where a SMILES comes first, the peptide text is derived from it. Bridges are numbered along the chain shown (N, C = ends). The star is where a group is joined. Pentadecanoyl = CCCCCCCCCCCCCCC(=O)*; Tridecanoyl = CCCCCCCCCCCCC(=O)*; Myristoyl = CCCCCCCCCCCCCC(=O)*

Key:
Rhizoctonia solani = experiment: Anti-fungus plate experiment (growth diameter on LB medium with drug); type: cell-based; details: LB plates, 28° C.
Procedure: (§1) The anti-fungi experiment, with 6 treatments of different drug concentration and three replicates each treatment and sterile water as blank check, was conducted by mixing Locillomycin-A, Locillomycin-B and Locillomycin-C separately into different plates containing LB medium and, then, inoculating pathogenic fungi in the center of the plates, followed by incubation at 28° C. to check the effectiveness of antifungal function. The criteria of the effectiveness were defined as the size of orthogonal cross diameter of the pathogen growth.

Fusarium oxysporum = experiment: as above; type: cell-based; details: LB plates, 28° C.
Procedure: as §1

[1] = solvents in which the compound dissolves
Fusarium graminearum = details: LB plates, 28° C.

Row | SMILES | IC50 (Rhizoctonia solani) | IC90 (Rhizoctonia solani) | IC50 (Fusarium oxysporum) | IC90 (Fusarium oxysporum) | Solubility [1] | IC50 (Fusarium graminearum) | IC90 (Fusarium graminearum)
1 | CCCCCCCCCCCCC(=O)NC1C(=O)NC(CCC(N)=O)C(=O)NC(CC(=O)O)C(=O)NCC(=O)NC(CC(N)=O)C(=O)NC(CC(=O)O)C(=O)NCC(=O)NC(Cc2ccc(O)cc2)C(=O)NC(C(C)C)C(=O)OC1C (stereo not drawn) [Locillomycin-A] (Tridecanoyl-TQDGNDGYV; ester 1-C; configuration not given here) | 15.5 µg/mL (≈ 13.5 µM) | 45.9 µg/mL (≈ 40 µM) | 12.5 µg/mL (≈ 10.9 µM) | 56.3 µg/mL (≈ 49.1 µM) | Methanol, Dimethyl | 25.4 µg/mL (≈ 22.2 µM) | >100 µg/mL
2 | CCCCCCCCCCCCCC(=O)NC1C(=O)NC(CCC(N)=O)C(=O)NC(CC(=O)O)C(=O)NCC(=O)NC(CC(N)=O)C(=O)NC(CC(=O)O)C(=O)NCC(=O)NC(Cc2ccc(O)cc2)C(=O)NC(C(C)C)C(=O)OC1C (stereo not drawn) [Locillomycin-B] (Myristoyl-TQDGNDGYV; ester 1-C; configuration not given here) | 13.8 µg/mL (≈ 11.9 µM) | 40.6 µg/mL (≈ 35 µM) | 11.6 µg/mL (≈ 10 µM) | 48.9 µg/mL (≈ 42.1 µM) | Methanol, Dimethyl | 22.6 µg/mL (≈ 19.5 µM) | >100 µg/mL
3 | CCCCCCCCCCCCCCC(=O)NC1C(=O)NC(CCC(N)=O)C(=O)NC(CC(=O)O)C(=O)NCC(=O)NC(CC(N)=O)C(=O)NC(CC(=O)O)C(=O)NCC(=O)NC(Cc2ccc(O)cc2)C(=O)NC(C(C)C)C(=O)OC1C (stereo not drawn) [Locillomycin-C] (Pentadecanoyl-TQDGNDGYV; ester 1-C; configuration not given here) | 12.4 µg/mL (≈ 10.6 µM) | 38.6 µg/mL (≈ 32.9 µM) | 10.3 µg/mL (≈ 8.77 µM) | 46.8 µg/mL (≈ 39.9 µM) | Methanol, Dimethyl | 21.7 µg/mL (≈ 18.5 µM) | >100 µg/mL
